These results are taken from article PMC5830979, “Preclinical In Vitro and In Vivo Evaluation of [^18F]FE@SUPPY for Cancer PET Imaging: Limitations of a Xenograft Model for Colorectal Cancer” (Contrast Media & Molecular Imaging, 2018).

Read-outs that look alike come from different tables or passages of the source.

In one series the target is T1, hA1AR (Homo sapiens, UniProt P30542).
T1 sequence (P30542 1-326): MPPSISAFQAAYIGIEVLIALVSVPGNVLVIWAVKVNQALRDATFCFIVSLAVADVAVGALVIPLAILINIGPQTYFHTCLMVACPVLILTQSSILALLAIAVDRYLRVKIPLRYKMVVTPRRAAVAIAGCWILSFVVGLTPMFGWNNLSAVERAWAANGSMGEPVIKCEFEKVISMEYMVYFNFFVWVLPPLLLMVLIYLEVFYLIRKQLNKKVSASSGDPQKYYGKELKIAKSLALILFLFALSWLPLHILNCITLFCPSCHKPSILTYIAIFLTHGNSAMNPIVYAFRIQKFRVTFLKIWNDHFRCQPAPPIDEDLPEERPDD
Kind of series: Competitive binding assay, hA1AR membranes, [3H]DPCPX. Conditions: for Ki: read-out: Ki hA1AR, [3H]DPCPX […], DMSO up to 10%, n = 3–5 in triplicate.

For another series, the target named is T2, hA3AR (Homo sapiens, UniProt P0DMS8).
T2 sequence (P0DMS8 1-318): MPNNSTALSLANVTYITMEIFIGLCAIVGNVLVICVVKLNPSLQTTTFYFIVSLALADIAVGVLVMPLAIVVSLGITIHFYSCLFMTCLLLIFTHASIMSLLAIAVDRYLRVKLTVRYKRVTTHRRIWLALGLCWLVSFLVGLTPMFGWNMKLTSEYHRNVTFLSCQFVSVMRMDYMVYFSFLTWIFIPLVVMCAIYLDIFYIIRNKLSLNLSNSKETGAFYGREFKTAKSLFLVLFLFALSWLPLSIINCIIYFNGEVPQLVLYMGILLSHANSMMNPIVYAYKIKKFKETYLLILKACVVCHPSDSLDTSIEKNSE
Kind of series: Competitive binding assay, hA3AR membranes, [125I]AB-MECA. Conditions: read-out: Ki hA3AR, [125I]AB-MECA 0.4 nM, DMSO ≤1%.

For another series, the target named is hA2AAR (Homo sapiens, UniProt P29274). Description: Competitive binding assay, hA2AAR membranes, [3H]CGS21680. Conditions: read-out: Ki hA2AAR; [3H]CGS21680 50 nM; DMSO up to 10%; n = 3–5 in triplicate.
Sequence of hA2AAR (P29274 whole entry): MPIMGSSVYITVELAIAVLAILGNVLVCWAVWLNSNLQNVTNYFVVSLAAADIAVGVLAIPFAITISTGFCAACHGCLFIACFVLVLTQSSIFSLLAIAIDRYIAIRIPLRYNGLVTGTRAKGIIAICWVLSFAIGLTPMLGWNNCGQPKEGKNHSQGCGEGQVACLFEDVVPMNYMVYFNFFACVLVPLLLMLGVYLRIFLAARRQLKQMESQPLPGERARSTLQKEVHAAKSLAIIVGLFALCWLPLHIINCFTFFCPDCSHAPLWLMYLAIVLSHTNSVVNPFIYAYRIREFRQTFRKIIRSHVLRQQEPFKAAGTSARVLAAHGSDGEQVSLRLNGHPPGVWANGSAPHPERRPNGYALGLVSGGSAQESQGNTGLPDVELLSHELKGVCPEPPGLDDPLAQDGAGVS
Series [1] relates to HT-29 cells. Set-up: method as in PMID 23454010. Conditions: 1 µM, A3AR-dependent; cited from earlier work.
Another series deals with HCT-116 cells. Set-up: method as in PMID 23454010. Conditions: A3AR dependent; cited from earlier work.
The subject of series [2] is colorectal carcinoma tissue slices. Description: Autoradiography of human colorectal carcinoma versus healthy colon tissue slices. The series is classed as binding. To be noted: in 5 of 7 regions, two CRC patients, P < 0.05. As for the experimental part: Colorectal carcinoma tissue and adjacent healthy colon tissue were obtained directly after tumorectomy from two patients after full informed consent and quick-frozen in 2-methylbutane (−40°C). Tissue was sliced into 16 μm slices using a microcryotome (Thermo Scientific Microm HM 560) and stored at −80°C until usage. Depending on the sample size, 3 to 4 different regions were defined and analyzed by means of autoradiography and immunohistochemistry.
Tissue slices were thawed and reconstituted in assay buffer (50 mM Tris-HCl pH 7.4, 100 mM NaCl, 1 mM EDTA, 1% BSA, 1 unit adenosine deaminase/100 mL) for 30 min at RT. Radiosynthesis of [^18F]FE@SUPPY was performed as previously described and the product was physiologically formulated (EtOH/0.9% saline 10/90). Tissue slices were incubated with 50 kBq [^18F]FE@SUPPY (40–200 GBq/μmol) in 100 μL assay buffer for 1 h at RT. Slices were thoroughly washed with ice-cold wash buffer (50 mM Tris-HCl pH 7.4), dried, and exposed to a phosphor screen overnight. The readout of the phosphor storage screen was performed on a Cyclone Phosphor Imager (Perkin Elmer), and data analysis was performed using OptiQuant® Software as previously described. […] Differences among groups (colorectal cancer versus healthy colon) were analyzed using a two-tailed, unpaired Student's t-test with Welch's correction.

A short description of series [3]: In vitro stability in mouse plasma. The series is classed as in vitro ADME. To be noted: 120 min incubation at 37°C. The method, then:
(§1) Stability of [^18F]FE@SUPPY was tested against mouse liver microsomes, mouse S9 fraction, and mouse plasma (BD Sciences). Amount of intact tracer (%) was determined after 5, 10, 20, 40, 60, and 120 min using an Agilent series 1100/1200 HPLC system connected to a radioactivity detector (Raytest, Ramona Star) (n = 2 in triplicate). The assay was conducted as previously described for respective rat and human enzymes.

A short description of series [4]: Ex vivo biodistribution in BALB/c mice. Conditions: 70 min after tracer application, n = 3. The method, then:
Ex vivo biodistribution of [^18F]FE@SUPPY was assessed 70 min after tracer application in BALB/c mice. Radioactivity was determined using a gamma counter (2480 Wizard^2, PerkinElmer), organs were wet-weighted, and percentage of injected dose per gram of organ was calculated (%ID/g).

Series [5] in a line: In vitro stability against mouse liver microsomes. It counts as in vitro ADME. To be noted: purified mouse liver microsomes, 120 min. The method, then:
as §1
For orientation: Microsomes from liver hold many membrane-bound enzymes, among them those of drug oxidation.

Details of series [6]: method as in PMID 25601336. Conditions: rats, after 60 min; cited from earlier work.
Series [7] is described as follows: In vitro stability against mouse S9 fraction. It counts as in vitro ADME. To be noted: mouse liver homogenates (S9 fraction), 120 min. As for the experimental part:
as §1

Series [8] can be described thus: Ex vivo blood stability in BALB/c mice. To be noted: 70 min after retroorbital injection. The method, then: Radiosynthesis was performed as described elsewhere and the product was processed as follows: ethanol was totally evaporated and the dry product was again physiologically formulated in 1.5–2 mL Tween-20/EtOH/0.9% saline 1/9/90 to obtain activity concentrations of approximately 1 GBq/mL. Healthy BALB/c mice were injected with 18 ± 2 MBq (molar activity = 70–200 GBq/μmol) retroorbitally and sacrificed after 5, 10, 20, 40, and 70 min (n = 3 for each time point). Blood samples were collected and immediately precipitated using acetonitrile/methanol (10 : 1) and centrifuged (12,000 rpm, 5 min, 4°C). The obtained supernatants were subjected to radio-HPLC as previously described.

The test system of the next series is HT-29 xenografts. Kind of series: µPET imaging of HT-29 / CHO-K1 xenograft-bearing CB17-SCID mice. The series is classed as in vivo. Conditions: µPET 60 min, baseline. The method, then: After 10 to 14 days upon arrival, CB17-SCID mice were injected subcutaneously with 2 × 10^6 HT-29 cells into one flank and 2 × 10^6 CHO-K1 cells in the opposite flank (n = 9). Body weight and tumor development were monitored every second day by caliper measurement. The respective tumor volume was calculated according to the following equation: tumor volume (mm^3) = d^2 × D/2 (where d is the shortest diameter and D the longest diameter). Animals were subjected to μPET imaging 10 days after inoculation, when tumors reached a volume of at least 300 mm^3. Tumor volume never exceeded 1 cm^3.
Xenograft-bearing CB17-SCID mice were anesthetized using isoflurane (2.5%) mixed with oxygen (1.5 L/min) to avoid movement during the imaging. Blocking agents (2 mg/kg BW FE@SUPPY or MRS1523) or the respective vehicle control (Tween-20/EtOH/0.9% physiological saline 1/9/90) was administered retroorbitally 2 min prior to the radiotracer administration (n = 3 per group). Subsequently, the animals received another retroorbital injection of 17.42 ± 4.5 MBq [^18F]FE@SUPPY into the venous plexus of the opposite eye. With a minor delay after the application of the radiotracer (2-3 min), mice were placed into the field of view of the scanner (μPET/CT Inveon, Siemens Medical Solution, Knoxville, USA), and dynamic imaging was performed for 60 min to follow tracer distribution. Vital parameters (respiration, body temperature) were continuously monitored using a dedicated monitoring unit (bioVet; m2m imaging, Cleveland, OH, USA) to ensure the depth of anesthesia and wellbeing of the animals.

For the next series, the system named is rat A3AR. Set-up: method as in PMID 25242859. Conditions: cited from earlier work.
Series [9] deals with HT-29 cells. Set-up: method as in PMID 17488804. To be noted: hypoxic conditions, through A3AR stimulation; cited from earlier work.

Description for hA1AR: (§2) The assay was performed according to the manufacturer's instructions in a final volume of 500 μL. Increasing concentrations of test compounds were added, whereby the concentration of dimethyl sulfoxide (DMSO) in final assay volume remained ≤10% (hA1AR and hA2AAR assay) and ≤1% in the hA3AR assay. Nonspecific binding was determined using 1 μM DPCPX (hA1R assay), 1 μM SCH-442,416 (hA2AR assay), or 10 μM I-AB-MECA (hA3AR assay). Filtration through GF/B filters (Whatman®, presoaked in 0.1% PEI or 0.5% BSA) was performed using a cell harvester (Brandel®), and receptor-bound radioactivity was determined via gamma counting (2480 Wizard^2, PerkinElmer) or liquid scintillation counting (Hidex 300 SL). IC50 fitted binding curves were generated using the GraphPad Software 5.0, and Ki values were calculated using the Cheng-Prusoff equation.
Description for hA2AAR: as §2
Description for hA3AR: as §2

As a reminder, the Ki is the dissociation constant of the complex between target and ligand, obtained from inhibition or displacement. Turning to `CCSC(=O)c1c(CC)nc(-c2ccccc2)c(C(=O)O)c1CC` [DFE@SUPPY], on hA1AR (ratio of Ki values), the hA1/hA3AR selectivity ratio came to 324. Moreover, the inhibitory constant (Ki) on hA1AR came out at 5.46 ± 0.4 µM; at hA3AR (n = 3–5 in triplicate), 2.58 ± 1.2 µM; on hA2AAR, 37.1 ± 16 µM.

Take `CCSC(=O)c1c(CC)nc(-c2ccccc2)c(C(=O)OCCF)c1CC` [FE@SUPPY]: the Ki at hA1AR worked out at 4.03 ± 1 µM; at hA3AR (n = 3) it was 0.00602 ± 0.0004 µM; at hA2AAR it was 1.72 ± 0.4 µM.

As for `CNC(=O)[C@H]1O[C@@H](n2cnc3c(NCc4cccc(I)c4)ncnc32)[C@H](O)[C@@H]1O` [IB-MECA], in the series on HT-29 cells [1], the “effect on cell growth” value was “growth promoting effect”. In the series on HCT-116 cells, the effect on cells entry is recorded as “causes cell apoptosis”.

Consider `CCSC(=O)c1c(CC)nc(-c2ccccc2)c(C(=O)OCC[18F])c1CC` [[^18F]FE@SUPPY, 5-(2-[18F]fluoroethyl) 2,4-diethyl-3-(ethylsulfanylcarbonyl)-6-phenylpyridine-5-carboxylate], for which the “higher binding in colorectal carcinoma versus healthy colon tissue of the same patient” value in series [2] is given as not below 2.3 fold. This molecule also showed an intact tracer in series [3] of 92.6 ± 0.7%. Further, in [4], the “accumulation in bile fluid” value amounted to 162.78 ± 37.51 % ID/g, the accumulation in brain worked out at 0.23 ± 0.03 % ID/g, the accumulation in heart was found to be 1.13 ± 0.04 % ID/g and the accumulation in kidneys stood at 2.67 ± 0.24 % ID/g. Further, in [4], the accumulation in liver is on record as 14.57 ± 0.20 % ID/g, the accumulation in lung is given as 1.50 ± 0.23 % ID/g, the accumulation in urine is reported as 43.33 ± 9.23 % ID/g and the “circulating radioactivity in blood” value was determined as 1.6 ± 0.1 % ID/g. For the same molecule, the intact tracer in [5] was 31.4 ± 7.8%. Moreover, the “intact tracer in plasma” value in [6] is 25.8 ± 5.3%. The molecule also came in with an intact tracer in series [7] of 66.9 ± 6.7%. Besides, in series [8], the “intact tracer in blood (ex vivo)” value is on record as 2.2 ± 0.4%. In the series with HT-29 xenografts (CB17-SCID mice), the “SUV CHO-K1 xenograft tumor (hA3AR negative control)” value was 0.25 ± 0.33, the “SUV HT-29 xenograft tumor” value turned out to be 0.23 ± 0.06, the SUV bile fluid was determined as 21.85 ± 10.63 and the SUV blood was 1.21 ± 0.11. In the series with HT-29 xenografts (CB17-SCID mice), this molecule displayed an SUV urine of 8.86 ± 3.44. This molecule also gave an SUV liver in the series with HT-29 xenografts (xenograft-bearing CB17-SCID mice) of 6.68 ± 0.80.

As to `Nc1ncnc2c1ncn2[C@@H]1O[C@H](CO)[C@@H](O)[C@H]1O` [adenosine], the “affinity for the A3AR” value in the series with rat A3AR is given as ~ 1 µM.

As to `Cn1c(=O)c2c(ncn2C)n(C)c1=O` [caffeine], the “effect on HIF-1 protein and VEGF expression” value with HT-29 cells [9] was “leads to hypoxia-inducible factor-1 (HIF-1) protein accumulation and increased vascular endothelial growth factor (VEGF) expression”.
